Laboratory results reported in patent US10017585B2, “Methods and compositions for promoting hair growth” (Momenta Pharmaceuticals, Inc., priority 2010, dated 2018).

Tested on: female BALB/c mice
Test: Hair regrowth score in shaved mice, MONC402 in combination with chemotherapy, 27 days
Type: in vivo
Procedure: The backs of eight week old female BALB/c mice were shaved. Osmotic pumps containing either saline or MONC402 were implanted into 64 mice (32 saline, 32 MONC402). Mice were further divided into groups receiving either saline or Docetaxel (10 mg/kg) once weekly ip starting 13 days after pump implant. Additionally, there was one group of naïve mice (n=4) as well as one group of mice receiving chemotherapy alone (Docetaxel, 10 mg/kg, once weekly ip starting 6 days after pump implant, n=16) which were not subject to shaving or pump implant. Staples used to close the implantation wound were removed 7 days later. Twenty seven days after pump implant, mice were scored for hair growth over the shaved area.

[1] = Docetaxel (10 mg/kg weekly ip) + Saline pump, 27 days

## CC(=O)O[C@@]12CO[C@@H]1C[C@H](O)[C@@]1(C)C(=O)[C@H](O)C3=C(C)[C@@H](OC(=O)[C@H](O)[C@@H](NC(=O)OC(C)(C)C)c4ccccc4)C[C@@](O)([C@@H](OC(=O)c4ccccc4)[C@H]21)C3(C)C [Docetaxel]
Docetaxel 10 mg/kg once weekly ip alone, No shaving or pump implant
  Number of animals scored 4: full growth (indistinguishable from unshaved): 16/16
[1]
  Number of animals scored 1.5: 1/16
  Number of animals scored 2: light growth: 7/16
  Number of animals scored 2.5: 2/16
  Number of animals scored 3: patchy/heavy growth: 6/16
